In US8658646B2, “Pyrrolopyrazine kinase inhibitors” (Hoffmann-LaRoche Inc., priority 2011, dated 2014) one finds IC50 data, which are given here for 30 molecules.

The structures appear in SMILES notation.

The target of one assay is T1, recombinant human SYK360-635 (Homo sapiens, UniProt P43405).
T1 construct: made in house
The experiment in a line: Determination of IC50 of Spleen Tyrosine Kinase (SYK) inhibition, 33P ATP filtration assay. As to conditions: SYK aa 360-635 0.5 nM; ATP 20 μM, peptide 5 μM, 0.1% BSA; read-out: SYK_ENZYME_FILTRATION/v1, BSA. Format: biochemical.
On to `CC(C)(C)NC(=O)c1c[nH]c2ncc(-c3nn(CCCN4CCC(F)(F)C4)c4ccc(OC(F)F)cc34)nc12` [Example I-343, 2-{5-Difluoromethoxy-1-[3-(3,3-difluoro-pyrrolidin-1-yl)-propyl]-1H-indazol-3-yl}-5H-pyrrolo[2,3-b]pyrazine-7-carboxylic acid tert-butylamide], for which the IC50 is 37 nM.

Take `COc1nn(-c2cnc3[nH]cc(C(=O)NC(C)(C)CO)c3n2)c2ccccc12` [Example I-344, 2-(3-Methoxy-indazol-1-yl)-5H-pyrrolo[2,3-b]pyrazine-7-carboxylic acid (2-hydroxy-1,1-dimethyl-ethyl)-amide]: the IC50 came out at 8.88 nM.

Consider `CNCCCn1nc(-c2cnc3[nH]cc(C(=O)NC(C)(C)C)c3n2)c2cc(OC(F)F)ccc21` [Example I-345, 2-[5-Difluoromethoxy-1-(3-methylamino-propyl)-1H-indazol-3-yl]-5H-pyrrolo[2,3-b]pyrazine-7-carboxylic acid tert-butylamide], for which the IC50 turned out to be 5.12 nM.

As to `CC(=O)N(C)CCCn1nc(-c2cnc3[nH]cc(C(=O)NC(C)(C)C)c3n2)c2cc(OC(F)F)ccc21` [Example I-346, 2-{1-[3-(Acetyl-methyl-amino)-propyl]-5-difluoromethoxy-1H-indazol-3-yl}-5H-pyrrolo[2,3-b]pyrazine-7-carboxylic acid tert-butylamide], the IC50 is 5.55 nM.

As for `CC(C)(C)NC(=O)c1c[nH]c2ncc(-c3nn(CC4CNC4)c4ccc(OC(F)F)cc34)nc12` [Example I-350, 2-(1-Azetidin-3-ylmethyl-5-difluoromethoxy-1H-indazol-3-yl)-5H-pyrrolo[2,3-b]pyrazine-7-carboxylic acid tert-butylamide], the IC50 came out at 5.98 nM.

Take `CC(C)(C)NC(=O)c1c[nH]c2ncc(-c3nn(CC4CC4)c4ccc(OC(F)F)cc34)nc12` [Example I-351, 2-(1-Cyclopropylmethyl-5-difluoromethoxy-1H-indazol-3-yl)-5H-pyrrolo[2,3-b]pyrazine-7-carboxylic acid tert-butylamide]: the IC50 is 18.4 nM.

Regarding `CC(C)(C)NC(=O)c1c[nH]c2ncc(-c3nn(CC(=O)N4CCN(CC(F)(F)F)CC4)c4ccc(OC(F)F)cc34)nc12` [Example I-352, 2-(5-Difluoromethoxy-1-{2-oxo-2-[4-(2,2,2-trifluoro-ethyl)-piperazin-1-yl]-ethyl}-1H-indazol-3-yl)-5H-pyrrolo[2,3-b]pyrazine-7-carboxylic acid tert-butylamide], the IC50 came to 15.9 nM.

For `CN1CCN(C(=O)Cn2nc(-c3cnc4[nH]cc(C(=O)NC(C)(C)C)c4n3)c3cc(OC(F)F)ccc32)CC1` [Example I-353, 2-{5-Difluoromethoxy-1-[2-(4-methyl-piperazin-1-yl)-2-oxo-ethyl]-1H-indazol-3-yl}-5H-pyrrolo[2,3-b]pyrazine-7-carboxylic acid tert-butylamide], the IC50 was 56.3 nM.

As to `CNC(=O)Cn1nc(-c2cnc3[nH]cc(C(=O)NC(C)(C)C)c3n2)c2cc(OC(F)F)ccc21` [Example I-354, 2-(5-Difluoromethoxy-1-methylcarbamoylmethyl-1H-indazol-3-yl)-5H-pyrrolo[2,3-b]pyrazine-7-carboxylic acid tert-butylamide], the IC50 was 14.4 nM.

As to `CCc1cccc2c(-c3cnc4[nH]cc(C(=O)NC(C)(C)C)c4n3)n[nH]c12` [Example I-355, 2-(7-Ethyl-1H-indazol-3-yl)-5H-pyrrolo[2,3-b]pyrazine-7-carboxylic acid tert-butylamide], the IC50 was 3.19 nM.

`CC(C)(C)NC(=O)c1c[nH]c2ncc(-c3ncn4cc(Cl)ccc34)nc12` [Example I-356, 2-(6-Chloro-imidazo[1,5-a]pyridin-1-yl)-5H-pyrrolo[2,3-b]pyrazine-7-carboxylic acid tert-butylamide]: the IC50 was found to be 8.92 nM.

Take `C[C@H](NC(=O)c1c[nH]c2ncc(-c3nn(C)c4cc(F)ccc34)nc12)c1ncc(C(F)(F)F)[nH]1` [Example I-358, 2-(6-Fluoro-1-methyl-1H-indazol-3-yl)-5H-pyrrolo[2,3-b]pyrazine-7-carboxylic acid [(S)-1-(5-trifluoromethyl-1H-imidazol-2-yl)-ethyl]-amide]: the IC50 came out at 107 nM.

`COC(=O)c1cnc([C@H](C)NC(=O)c2c[nH]c3ncc(-c4nn(C)c5cc(F)ccc45)nc23)[nH]1` [Example I-359, 2-((S)-1-{[2-(6-Fluoro-1-methyl-1H-indazol-3-yl)-5H-pyrrolo[2,3-b]pyrazine-7-carbonyl]-amino}-ethyl)-3H-imidazole-4-carboxylic acid methyl ester]: the IC50 was found to be 112 nM.

Turning to `C#CC1CN(C(=O)c2c[nH]c3ncc(-c4nn(C)c5cc(F)ccc45)nc23)C1` [Example I-360, (3-Ethynyl-azetidin-1-yl)-[2-(6-fluoro-1-methyl-1H-indazol-3-yl)-5H-pyrrolo[2,3-b]pyrazin-7-yl]-methanone], the IC50 was 1550 nM.

In the case of `CONC(=O)c1c[nH]c2ncc(-c3nn(C)c4cc(F)ccc34)nc12` [Example I-361, 2-(6-Fluoro-1-methyl-1H-indazol-3-yl)-5H-pyrrolo[2,3-b]pyrazine-7-carboxylic acid methoxy-amide], the IC50 was found to be 214 nM.

In the case of `CCc1ccc2c(-c3cnc4[nH]cc(C(=O)NC(C)(C)C)c4n3)nn(C)c2c1` [Example I-367, 2-(6-Ethyl-1-methyl-1H-indazol-3-yl)-5H-pyrrolo[2,3-b]pyrazine-7-carboxylic acid tert-butylamide], the IC50 came out at 4.78 nM.

Consider `Cc1ccc2c(-c3cnc4[nH]cc(C(=O)NC(C)(C)CO)c4n3)nn(C)c2c1` [Example I-368, 2-(1,6-Dimethyl-1H-indazol-3-yl)-5H-pyrrolo[2,3-b]pyrazine-7-carboxylic acid (2-hydroxy-1,1-dimethyl-ethyl)-amide], for which the IC50 amounted to 8.95 nM.

Consider `Cc1cccc2c(-c3cnc4[nH]cc(C(=O)NC(C)(C)C)c4n3)n[nH]c12` [Example I-369, 2-(7-Methyl-1H-indazol-3-yl)-5H-pyrrolo[2,3-b]pyrazine-7-carboxylic acid tert-butylamide], for which the IC50 worked out at 8 nM.

Take `Cn1nc(-c2cnc3[nH]cc(C(=O)NC(C)(C)C)c3n2)c2ccc(OC(F)(F)F)cc21` [Example I-370, 2-(1-Methyl-6-trifluoromethoxy-1H-indazol-3-yl)-5H-pyrrolo[2,3-b]pyrazine-7-carboxylic acid tert-butylamide]: the IC50 was found to be 41 nM.

For `Cn1nc(-c2cnc3[nH]cc(C(=O)NC(C)(C)CO)c3n2)c2ccc(OC(F)(F)F)cc21` [Example I-371, 2-(1-Methyl-6-trifluoromethoxy-1H-indazol-3-yl)-5H-pyrrolo[2,3-b]pyrazine-7-carboxylic acid (2-hydroxy-1,1-dimethyl-ethyl)-amide], the IC50 was 23.1 nM.

For the molecule `Cc1cccc2c(-c3cnc4[nH]cc(C(=O)NC(C)(C)CO)c4n3)n[nH]c12` [Example I-372, 2-(7-Methyl-1H-indazol-3-yl)-5H-pyrrolo[2,3-b]pyrazine-7-carboxylic acid (2-hydroxy-1,1-dimethyl-ethyl)-amide], the IC50 worked out at 5.12 nM.

With `Cn1nc(-c2cnc3[nH]cc(C(=O)NC(C)(C)C)c3n2)c2cccnc21` [Example I-373, 2-(1-Methyl-1H-pyrazolo[3,4-b]pyridin-3-yl)-5H-pyrrolo[2,3-b]pyrazine-7-carboxylic acid tert-butylamide], the IC50 was determined as 19 nM.

Turning to `Cn1nc(-c2cnc3[nH]cc(C(=O)NC4(CO)CC4)c3n2)c2ccc(F)cc21` [Example I-374, 2-(6-Fluoro-1-methyl-1H-indazol-3-yl)-5H-pyrrolo[2,3-b]pyrazine-7-carboxylic acid (1-hydroxymethyl-cyclopropyl)-amide], the IC50 amounted to 7.65 nM.

As to `Cn1nc(-c2cnc3[nH]cc(C(=O)NC4(C)CCC4)c3n2)c2ccc(F)cc21` [Example I-376, 2-(6-Fluoro-1-methyl-1H-indazol-3-yl)-5H-pyrrolo[2,3-b]pyrazine-7-carboxylic acid (1-methyl-cyclobutyl)-amide], the IC50 came to 2.82 nM.

As for `Cn1nc(-c2cnc3[nH]cc(C(=O)NC(C)(C)CN)c3n2)c2ccc(F)cc21` [Example I-379, 2-(6-Fluoro-1-methyl-1H-indazol-3-yl)-5H-pyrrolo[2,3-b]pyrazine-7-carboxylic acid (2-amino-1,1-dimethyl-ethyl)-amide], the IC50 was 145 nM.

With `C#CC(C)(C)NC(=O)c1c[nH]c2ncc(-c3nn(C)c4cc(F)ccc34)nc12` [Example I-380, 2-(6-Fluoro-1-methyl-1H-indazol-3-yl)-5H-pyrrolo[2,3-b]pyrazine-7-carboxylic acid (1,1-dimethyl-prop-2-ynyl)-amide], the IC50 is 9.95 nM.

As for `Cn1nc(-c2cnc3[nH]cc(C(=O)NC(C)(C)C(=O)OC(C)(C)C)c3n2)c2ccc(F)cc21` [Example I-381, 2-{[2-(6-Fluoro-1-methyl-1H-indazol-3-yl)-5H-pyrrolo[2,3-b]pyrazine-7-carbonyl]-amino}-2-methyl-propionic acid tert-butyl ester], the IC50 came to 716 nM.

For the molecule `Cn1nc(-c2cnc3[nH]cc(C(=O)NC(C)(C)C(=O)O)c3n2)c2ccc(F)cc21` [Example I-382, 2-{[2-(6-Fluoro-1-methyl-1H-indazol-3-yl)-5H-pyrrolo[2,3-b]pyrazine-7-carbonyl]-amino}-2-methyl-propionic acid], the IC50 was 945 nM.

For the molecule `Cn1nc(-c2cnc3[nH]cc(C(=O)NC(C)(CO)CO)c3n2)c2ccc(F)cc21` [Example I-383, 2-(6-Fluoro-1-methyl-1H-indazol-3-yl)-5H-pyrrolo[2,3-b]pyrazine-7-carboxylic acid (2-hydroxy-1-hydroxymethyl-1-methyl-ethyl)-amide], the IC50 is 8.05 nM.

Still in this assay, the particulars now being: SYK_ENZYME_FILTRATION/v1, BSA, SYK aa 360-635 0.5 nM; ATP 20 μM, peptide 5 μM, 0.1% BSA.
For the molecule `CC(C)(CO)NC(=O)c1c[nH]c2ncc(-n3nc(C4CCNCC4)c4ccccc43)nc12` [Example I-347, 2-(3-Piperidin-4-yl-indazol-1-yl)-5H-pyrrolo[2,3-b]pyrazine-7-carboxylic acid (2-hydroxy-1,1-dimethyl-ethyl)-amide], the IC50 turned out to be 14.3 nM.
